Data reported in ChEMBL document CHEMBL1141548, “Synthesis of a small library of 2-phenoxy-1,4-naphthoquinone and 2-phenoxy-1,4-anthraquinone derivatives bearing anti-trypanosomal and anti-leishmanial activity” (Bioorg Med Chem Lett, 2008).

What was measured:
L6 = assay: Cytotoxicity against rat L6 cells; format: cell-based
[1] = Selectivity index, ratio of IC50 for rat L6 cells to IC50 for Leishmania donovani MHOM-ET-67/L82; format: functional, cell-based
[2] = system: Trypanosoma brucei rhodesiense; assay: Antitrypanosomal activity against Trypanosoma brucei rhodesiense STIB900 trypomastigotes by microplate assay; format: functional, organism-based
[3] = Selectivity index, ratio of IC50 for rat L6 cells to IC50 for Trypanosoma cruzi Tulahuen C4; format: functional, cell-based
Trypanosoma cruzi = assay: Antitrypanosomal activity against Trypanosoma cruzi Tulahuen C4 amastigotes by microplate assay; format: functional, organism-based
Leishmania donovani = assay: Antileishmanial activity against Leishmania donovani MHOM-ET-67/L82 amastigotes by microplate assay; format: functional, organism-based
[4] = Selectivity index, ratio of IC50 for rat L6 cells to IC50 for Trypanosoma brucei rhodesiense STIB900; format: functional, cell-based

Row | Structure (SMILES) | IC50 [2] | IC50 (Trypanosoma cruzi) | IC50 (Leishmania donovani) | IC50 (L6) | selectivity index [1] | selectivity index [3] | selectivity index [4]
1 | Cc1ccc(OC2=CC(=O)c3ccccc3C2=O)c(C)c1 | 220 nM | 2470 nM | 510 nM | 5260 nM | 10.3 | 2.13 | 24.4
2 | O=C1C=C(Oc2ccc(Cl)cc2F)C(=O)c2ccccc21 | 370 nM | 4430 nM | 700 nM | 4580 nM | 6.54 | 1.03 | 12.5
3 | O=C1C=C(Oc2ccccc2)C(=O)c2cc3ccccc3cc21 | 50 nM | 4660 nM | 340 nM | 1000 nM | 2.94 | 0.21 | 20
4 | O=C1C=C(Oc2ccc(F)cc2Br)C(=O)c2cc3ccccc3cc21 | 80 nM | 2870 nM | 350 nM | 1130 nM | 3.24 | 0.39 | 14.1
5 | CCCCCCCCCCCCCCCCOP(=O)([O-])OCC[N+](C)(C)C [MILTEFOSINE] |  |  | 310 nM |  |  |  | 
6 | O=C1C=C(Oc2ccc(Cl)cc2Cl)C(=O)c2ccccc21 | 290 nM | 5950 nM | 1320 nM | 5180 nM | 3.94 | 0.87 | 17.8
7 | O=C1C=C(Oc2ccc(F)cc2F)C(=O)c2ccccc21 | 390 nM | 5000 nM | 2290 nM | 5510 nM | 2.41 | 1.1 | 14.2
8 | O=C1C=C(Oc2ccc(F)cc2F)C(=O)c2cc3ccccc3cc21 | 240 nM | 7140 nM | 280 nM | 1980 nM | 7.01 | 0.28 | 8.43
9 | O=C1C=C(Oc2ccccc2)C(=O)c2ccccc21 | 80 nM | 1260 nM | 1260 nM | 5920 nM | 4.69 | 4.7 | 74
10 | Cc1ccc(OC2=CC(=O)c3cc4ccccc4cc3C2=O)cc1Br | 150 nM | 6360 nM | 360 nM | 2560 nM | 7.1 | 0.4 | 17.4
11 | O=C1C=C(Oc2ccc(F)cc2Br)C(=O)c2ccccc21 | 360 nM | 3740 nM | 1810 nM | 4660 nM | 2.58 | 1.25 | 13.1

Further compounds by falling IC50 (Leishmania donovani), results first:

Row | IC50 [2] | IC50 (Trypanosoma cruzi) | IC50 (Leishmania donovani) | Structure (SMILES) | IC50 (L6) | selectivity index [1] | selectivity index [3] | selectivity index [4]
12 | 510 nM | 34300 nM | 2370 nM | O=C1C=C(Oc2ccc(Br)cc2Br)C(=O)c2ccccc21 | 28500 nM | 12.1 | 0.83 | 55.7
13 | 300 nM | 2880 nM | 920 nM | Cc1ccc(OC2=CC(=O)c3ccccc3C2=O)cc1Br | 4920 nM | 5.34 | 1.71 | 16.4
14 | 310 nM | 22500 nM | 550 nM | Cc1ccc(OC2=CC(=O)c3cc4ccccc4cc3C2=O)c(C)c1 | 4130 nM | 7.53 | 0.18 | 13.2
15 | 210 nM | 21500 nM | 530 nM | O=C1C=C(Oc2ccc(Cl)cc2F)C(=O)c2cc3ccccc3cc21 | 2640 nM | 5.01 | 0.12 | 12.4
16 | 65 nM | 13700 nM | 490 nM | O=C1C=C(Oc2ccc(Cl)cc2Cl)C(=O)c2cc3ccccc3cc21 | 2010 nM | 4.15 | 0.15 | 31
17 | 140 nM | 16400 nM | 470 nM | O=C1C=C(Oc2ccc(Br)cc2Br)C(=O)c2cc3ccccc3cc21 | 2190 nM | 4.71 | 0.13 | 15.4
